# According to paper PMC9816194, “Use of the head-twitch response to investigate the structure–activity relationships of 4-thio-substituted 2,5-dimethoxyphenylalkylamines” (Psychopharmacology, 2022):
# Where two headings read alike, the source gives them in different places.
# What was measured:
# [1] = test system: mice; details: ref Gonzalez-Maeso et al. 2007; Halberstadt and Geyer 2013; cited from earlier work
# [2] = target: human 5-HT2A receptor (Homo sapiens, UniProt P28223); design: expressed in transfected cells; host or cells: HEK 293 (transient), membrane preparations; details: read-out: 5-HT2A Ki; [3H]ketanserin; ref Luethi et al. (2018); cited from earlier work
# Chain of human 5-HT2A receptor (P28223 whole entry): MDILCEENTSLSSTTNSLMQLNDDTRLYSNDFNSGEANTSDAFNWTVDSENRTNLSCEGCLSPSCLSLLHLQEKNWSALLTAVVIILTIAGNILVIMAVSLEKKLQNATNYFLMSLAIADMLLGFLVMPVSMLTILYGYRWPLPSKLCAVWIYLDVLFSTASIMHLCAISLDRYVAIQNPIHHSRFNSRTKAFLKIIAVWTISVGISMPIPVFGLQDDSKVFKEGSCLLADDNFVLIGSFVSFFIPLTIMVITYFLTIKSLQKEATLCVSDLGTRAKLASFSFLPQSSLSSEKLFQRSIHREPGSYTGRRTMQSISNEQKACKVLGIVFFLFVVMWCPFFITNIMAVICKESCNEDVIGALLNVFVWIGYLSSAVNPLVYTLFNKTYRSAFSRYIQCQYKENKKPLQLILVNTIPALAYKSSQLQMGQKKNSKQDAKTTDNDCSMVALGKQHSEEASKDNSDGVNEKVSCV
# [3] = test system: male C57BL/6 J mice; assay: Head-twitch response (HTR), magnetometer coil recording; type: in vivo; details: for HTR Counts (Mean ± SEM): 30 min; for ED50: Mus musculus, 0.5 h, HTR, IP, 30 min recording, male C57BL/6 J mice; for maximum number of head twitches (mean ± SEM): during the 30-min assessment period; for reduction of HTR potency versus 2C-T-7: replacement of the 4-n-propylthio group of 2C-T-7
# Method: Male C57BL/6 J mice (Jackson Laboratory, Bar Harbor, ME) were housed in a vivarium at the University of California San Diego (UCSD), which is an AAALAC-approved animal facility that complies with Federal and State requirements for care and treatment of laboratory animals. The mice (6–8 weeks old) were housed in a climate-controlled room with a reversed light-cycle (lights on at 19:00 h, off at 07:00 h) up to 4 animals per cage. Food and water were provided ad libitum, except during behavioral testing which occurred between 10:00 and 18:00 h. All experiments were conducted according to NIH guidelines and were approved by the UCSD animal care committee.
# Head movement was recorded using a head-mounted magnet and a magnetometer coil (Halberstadt and Geyer [2013]). Briefly, mice were anesthetized, a small incision was made in the scalp, and a neodymium magnet was attached to the dorsal surface of the cranium using dental cement. Following a 1–2-week recovery period, behavioral experiments were conducted in a well-lit room with at least 7 days between sessions to avoid any carryover effects. Mice were treated with vehicle or test compound and then placed in a glass cylinder surrounded by a magnetometer coil and activity was recorded for 30 min. All test substances were administered IP dissolved in saline using an injection volume of 5 mL/kg. Coil voltage was filtered (5–10 kHz lowpass), digitized (20 kHz sampling rate), and saved to disk using a Powerlab/8SP with LabChart v 7.3.2 (ADInstruments, Colorado Springs, CO). To detect head twitches, events in the recordings were converted into scalograms using a wavelet transform and then the images were classified using a multistage approach combining the deep convolutional neural network (CNN) ResNet-50 with a support vector machine (SVM) algorithm (Halberstadt [2020]). HTR counts were analyzed using a one-way Welch analysis of variance (ANOVA). Post hoc pairwise comparisons were performed using Dunnett’s test. […] Median effective doses (ED50 values) and 95% confidence intervals were calculated using nonlinear regression (Prism ver. 9.0.2, GraphPad Software Inc, San Diego, CA, USA).
# [4] = test system: humans; details: cited from earlier work; for Human potency range: dose range active as psychedelic in humans; for Human active dose range: ref Shulgin and Shulgin 1991
# [5] = read-out: ED50 µmol/kg (95% CI)
compound,measurement,setting,value
"CCN(CC)C(=O)N[C@H]1C=C2c3cccc4[nH]cc(c34)C[C@H]2N(C)C1 [lisuride, reference compound]",induction of HTR (in words),[1],does not induce the response
"COc1cc(SC)c(OC)cc1CCN.Cl [Compound 2C-T, 2,5-Dimethoxy-4-methylthiophenethylamine hydrochloride]",Ki,[2],49 nM
same,HTR Counts (Mean ± SEM),[3]; 1.5 mg/kg IP,22.4 ± 5.9
same,HTR Counts (Mean ± SEM),[3]; 3 mg/kg IP,49.3 ± 3.1
same,HTR Counts (Mean ± SEM),[3]; 6 mg/kg IP,61.0 ± 4.7
same,HTR Counts (Mean ± SEM),[3]; 12 mg/kg IP,97.2 ± 8.1
same,HTR Counts (Mean ± SEM),[3]; 24 mg/kg IP,64.8 ± 6.0
same,ED50,[3]; [5],13.8 µmol/kg
same,ED50,[3]; read-out: ED50 mg/kg (95% CI),3.65 mg/kg
same,maximum number of head twitches (mean ± SEM),[3],97.2 ± 8.1
same,Human potency range,[4]; ref Shulgin and Shulgin (1991),60–100 mg ^[5]
same,Human active dose range,[4]; Shulgin et al. 1991,60 to 100 mg
"COc1cc(SCCCF)c(OC)cc1CCN.Cl [Compound 2C-T-28, 4-(3-fluoropropylthio)-2,5-dimethoxyphenethylamine hydrochloride]",Ki,[2],17 nM
same,HTR Counts (Mean ± SEM),[3]; 0.3 mg/kg IP,7.4 ± 2.0
same,HTR Counts (Mean ± SEM),[3]; 1 mg/kg IP,25.4 ± 4.1
same,HTR Counts (Mean ± SEM),[3]; 3 mg/kg IP,42.0 ± 6.1
same,HTR Counts (Mean ± SEM),[3]; 10 mg/kg IP,27.2 ± 7.4
same,ED50,[3]; [5],3.49 µmol/kg
same,ED50,[3]; read-out: ED50 mg/kg (95% CI),1.08 mg/kg
same,Human active dose range,"[4]; p.o., Trachsel et al. 2013",8 to 20 mg
"CCCCSc1cc(OC)c(CCN)cc1OC.Cl [Compound 2C-T-19, 4-n-butylthio-2,5-dimethoxyphenethylamine hydrochloride]",Ki,[2],6.9 nM
same,HTR Counts (Mean ± SEM),[3]; 0.3 mg/kg IP,14.2 ± 3.4
same,HTR Counts (Mean ± SEM),[3]; 1 mg/kg IP,19.8 ± 1.1
same,HTR Counts (Mean ± SEM),[3]; 3 mg/kg IP,26.6 ± 9.4
same,HTR Counts (Mean ± SEM),[3]; 10 mg/kg IP,12.0 ± 4.1
same,ED50,[3]; [5],3.27 µmol/kg
same,ED50,[3]; read-out: ED50 mg/kg (95% CI),1 mg/kg
same,maximum number of head twitches (mean ± SEM),[3],26.6 ± 9.4
"COc1cc(SCC(F)F)c(OC)cc1CCN.Cl [Compound 2C-T-21.5, 4-(2,2-difluoroethylthio)-2,5-dimethoxyphenethylamine hydrochloride]",Ki,[2],14 nM
same,HTR Counts (Mean ± SEM),[3]; 1.5 mg/kg IP,26.0 ± 5.4
same,HTR Counts (Mean ± SEM),[3]; 3 mg/kg IP,39.4 ± 7.2
same,HTR Counts (Mean ± SEM),[3]; 6 mg/kg IP,85.6 ± 9.8
same,HTR Counts (Mean ± SEM),[3]; 12 mg/kg IP,40.4 ± 13.0
same,ED50,[3]; [5],9.97 µmol/kg
same,ED50,[3]; read-out: ED50 mg/kg (95% CI),3.13 mg/kg
same,Human potency range,[4]; ref Trachsel et al. (2013),12–30 mg ^[6]
same,Human active dose range,"[4]; p.o., Trachsel et al. 2013",12 to 30 mg
"C=CCSc1cc(OC)c(CCN)cc1OC.Cl [Compound 2C-T-16, 4-allylthio-2,5-dimethoxyphenethylamine hydrochloride]",Ki,[2],9.2 nM
same,HTR Counts (Mean ± SEM),[3]; 1.5 mg/kg IP,49.6 ± 11.1
same,HTR Counts (Mean ± SEM),[3]; 3 mg/kg IP,101.6 ± 20.4
same,HTR Counts (Mean ± SEM),[3]; 6 mg/kg IP,100.6 ± 9.6
same,HTR Counts (Mean ± SEM),[3]; 12 mg/kg IP,51.2 ± 18.3
same,ED50,[3]; [5],5.8 µmol/kg
same,ED50,[3]; read-out: ED50 mg/kg (95% CI),1.68 mg/kg
same,HTR potency relative to 2C-T-7,"[3]; mouse, in vivo",about 50%
same,reduction of HTR potency versus 2C-T-7,[3],more than 50%
"C=C(C)CSc1cc(OC)c(CCN)cc1OC.Cl [Compound 2C-T-3, 2,5-dimethoxy-4-methallylthiophenethylamine hydrochloride]",Ki,[2],11 nM
same,HTR Counts (Mean ± SEM),[3]; 0.3 mg/kg IP,11.3 ± 3.6
same,HTR Counts (Mean ± SEM),[3]; 1 mg/kg IP,26.2 ± 3.4
same,HTR Counts (Mean ± SEM),[3]; 3 mg/kg IP,67.6 ± 5.4
same,HTR Counts (Mean ± SEM),[3]; 10 mg/kg IP,67.8 ± 7.5
same,HTR Counts (Mean ± SEM),[3]; 30 mg/kg IP,2.2 ± 1.4
same,ED50,[3]; [5],6.12 µmol/kg
same,ED50,[3]; read-out: ED50 mg/kg (95% CI),1.86 mg/kg
same,reduction of HTR potency versus 2C-T-7,[3],more than 50%
"COc1cc(CC(C)N)cc(OC)c1OC (stereo not drawn) [TMA, 3,4,5-trimethoxyamphetamine, reference compound]",Human potency range,[4]; ref Shulgin and Shulgin (1991),100 to 250 mg
"CCN(CC)C(=O)[C@@H]1C=C2c3cccc4[nH]cc(c34)C[C@H]2N(C)C1 [LSD, lysergic acid diethylamide, reference compound]",induction of HTR (in words),[1],induces the HTR
